In PubChem BioAssay (NCI):
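Compound exposure: 48 hours, 5 concentrations, 96-well plates. TGI: concentration producing complete growth inhibition.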

Assays:
Experiment in all cases: DTP human tumour cell line panel, 48 h
[1] = system: HOP-92 NSCLC
[2] = system: CCRF-CEM leukemia
[3] = system: HS 578T breast
[4] = system: MALME-3M melanoma
[5] = system: T-47D breast
[6] = system: EKVX NSCLC
[7] = system: SK-MEL-5 melanoma
[8] = system: HCC-2998 colon
[9] = system: HCT-15 colon
[10] = system: UACC-257 melanoma
[11] = system: LOX IMVI melanoma
[12] = system: NCI-H226 lung
[13] = system: SN12C renal
[14] = system: SK-OV-3 ovarian

Structure (SMILES) | TGI [1] [µM] | TGI [2] [µM] | TGI [3] [µM] | TGI [4] [µM] | TGI [5] [µM] | TGI [6] [µM] | TGI [7] [µM] | TGI [8] [µM] | TGI [9] [µM] | TGI [10] [µM] | TGI [11] [µM] | TGI [12] [µM] | TGI [13] [µM] | TGI [14] [µM]
COc1ccc2cc(CNCCCN3CCN(CCCNCc4ccc5cc(OC)ccc5c4)CC3)ccc2c1 | 2.82 | 1.3 | 3.32 | 3.14 | 3.19 | 3.18 | 3.05 | 0.643 | 3.01 | 3.86 | 1.48 | 3.69 | 3.11 | 2.72
CC1=CC[C@@]2(C)[C@@H]([C@@H]1C)[C@H]1CC[C@@H]3[C@@]4(C)CC[C@H](O)C(C)(C)[C@@H]4CC[C@@]3(C)[C@]1(C)C[C@@H]2O | 53 | > 53.1 | > 74 | > 68.7 | > 74.9 | 23.6 | > 62 | 37.9 | > 71.6 | 34.8 | 16 | > 100 | > 100 | > 64.7
CC(C)[Si](OCC/C=C/C1CCC(=O)C1C(O)C1CCCCC1)(C(C)C)C(C)C (stereo unspecified) | 27.7 | 44.6 | 36.5 | 29.1 | 33.7 | 28.9 | 29 | 23.2 | 30.6 | 29.5 | 32.7 | 30 | 34.4 | 30.3
COC(=O)C(Cc1ccccc1)C(=O)NC(CNC(=O)OCc1ccccc1)C(=O)OCc1ccccc1 (stereo unspecified) | > 72.3 | 48.9 | > 100 | 43.2 | > 100 | > 100 | 34 | > 95.4 | > 100 | 34.7 | 36 | > 80.2 | > 100 | > 100
CNC(=O)C(C)NC(=O)C(Cc1ccccc1)NC(=O)OC(C)(C)C (stereo unspecified) | > 100 | > 100 | > 100 | > 100 | > 100 | > 100 | > 100 | > 100 | > 100 | > 100 | > 100 | > 100 | > 100 | > 100
CCN(CC)CCN1CCN=c2c3cc(OC)ccc3n3cnc4ccc1c2c43 | 4.42 | 1.71 | 4.71 | 2.74 | 23.3 | 3.21 | 3.27 | 2.13 | 1.9 | 3.74 | 1.07 | 5.3 | 3.38 | 5.16
CCOP(=O)(CCC(O)CNc1nc(N)nc(Cl)c1N=Nc1ccc(Cl)cc1)OCC (stereo unspecified) | 3.8 | 46.5 | 38.2 | 21.4 | 37.3 | 40.6 | 25.7 | 26.1 | 19.6 | 29.5 | 22.9 | 64.5 | 42.7 | 58.9
CCC/C(Cl)=N\OC(=O)Nc1ccc(Br)cc1 | 9.17 | 4.3 | 66.6 | 10.8 | 25.2 | 29 | 27.7 | 32.9 | 19.9 | 27 | 10.6 | 44 | 33.8 | 30.5
CC(=O)NNc1nc(C)c(C(/C=C/c2ccccc2O)=N/NC(=O)c2ccncc2)s1 | > 100 | > 100 | > 100 | > 100 | > 100 | > 100 | > 100 | > 100 | > 100 | > 100 | > 100 | > 100 | > 100 | > 100
